Data reported in ChEMBL document CHEMBL4507320, “Data for DCP probe NVS-MALT1” (2021).
Calls of active or inactive are those of the source. The rule behind the calls is not given here.

How the values were obtained:
[1] = target: Tyrosine-protein kinase Lyn (Homo sapiens) (UniProt P07948); conditions: Compound concentration 1000.0 nM
[2] = tested on: Tyrosine-protein kinase ABL1 (Homo sapiens), P00519 [M351T]; conditions: Compound concentration 1000.0 nM
[3] = target: 5-hydroxytryptamine receptor 1D (Homo sapiens) (UniProt P28221); conditions: Compound concentration 10.0 uM
[4] = target: G protein-coupled receptor kinase 4 (Homo sapiens) (UniProt P32298); conditions: Compound concentration 1000.0 nM
[5] = target: Calcium/calmodulin-dependent protein kinase type II subunit delta (Homo sapiens) (UniProt Q13557); conditions: Compound concentration 1000.0 nM
[6] = target: Discoidin domain-containing receptor 2 (Homo sapiens) (UniProt Q16832); conditions: Compound concentration 1000.0 nM
[7] = target: Focal adhesion kinase 1 (Homo sapiens) (UniProt Q05397); conditions: Compound concentration 1000.0 nM
[8] = target: High affinity nerve growth factor receptor (Homo sapiens) (UniProt P04629); conditions: Compound concentration 1000.0 nM
[9] = tested on: Phosphatidylinositol 4,5-bisphosphate 3-kinase catalytic subunit alpha isoform (Homo sapiens), P42336 [H1047L]; conditions: Compound concentration 1000.0 nM
[10] = target: Fibroblast growth factor receptor 1 (Homo sapiens) (UniProt P11362); conditions: Compound concentration 1000.0 nM
[11] = target: Serine/threonine-protein kinase 10 (Homo sapiens) (UniProt O94804); conditions: Compound concentration 1000.0 nM
[12] = target: Microtubule-associated serine/threonine-protein kinase 1 (Homo sapiens) (UniProt Q9Y2H9); conditions: Compound concentration 1000.0 nM
[13] = tested on: Phosphatidylinositol 4,5-bisphosphate 3-kinase catalytic subunit alpha isoform (Homo sapiens), P42336 [Q546K]; conditions: Compound concentration 1000.0 nM
[14] = target: Cyclin-dependent kinase 16 (Homo sapiens) (UniProt Q00536); conditions: Compound concentration 1000.0 nM
[15] = target: BDNF/NT-3 growth factors receptor (Homo sapiens) (UniProt Q16620); conditions: Compound concentration 1000.0 nM
[16] = target: T1, Mucosa-associated lymphoid tissue lymphoma translocation protein 1 (Homo sapiens, UniProt Q9UDY8); assay: Jurkat IL-2 (IL2-RGA PMA + anti-CD28); assay type: cell-based
T1 sequence (Q9UDY8 whole entry): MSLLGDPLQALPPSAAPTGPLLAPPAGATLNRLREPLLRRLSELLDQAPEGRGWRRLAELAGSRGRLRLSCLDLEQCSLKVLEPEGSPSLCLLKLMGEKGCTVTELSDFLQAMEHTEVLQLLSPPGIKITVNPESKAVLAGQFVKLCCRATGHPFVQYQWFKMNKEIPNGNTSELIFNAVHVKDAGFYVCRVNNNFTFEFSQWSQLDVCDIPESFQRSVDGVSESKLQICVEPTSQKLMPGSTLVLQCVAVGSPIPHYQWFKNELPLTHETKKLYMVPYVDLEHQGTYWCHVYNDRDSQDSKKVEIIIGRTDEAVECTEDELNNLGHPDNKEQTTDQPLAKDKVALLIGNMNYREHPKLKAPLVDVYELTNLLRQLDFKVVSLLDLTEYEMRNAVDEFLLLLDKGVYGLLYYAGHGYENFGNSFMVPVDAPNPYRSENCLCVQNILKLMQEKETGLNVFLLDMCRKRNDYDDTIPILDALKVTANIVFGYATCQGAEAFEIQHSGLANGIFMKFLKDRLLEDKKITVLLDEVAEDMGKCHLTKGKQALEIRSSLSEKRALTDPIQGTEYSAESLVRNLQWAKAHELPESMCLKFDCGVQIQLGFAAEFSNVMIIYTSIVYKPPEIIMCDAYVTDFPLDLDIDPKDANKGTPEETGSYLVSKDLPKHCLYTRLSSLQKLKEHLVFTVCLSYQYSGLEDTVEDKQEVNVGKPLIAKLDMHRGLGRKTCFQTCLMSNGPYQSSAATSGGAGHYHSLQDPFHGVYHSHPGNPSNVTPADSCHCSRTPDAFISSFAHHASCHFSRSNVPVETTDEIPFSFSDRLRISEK

[17] = target: Mitogen-activated protein kinase kinase kinase 11 (Homo sapiens) (UniProt Q16584); conditions: Compound concentration 1000.0 nM
[18] = target: Ephrin type-B receptor 4 (Homo sapiens) (UniProt P54760); conditions: Compound concentration 1000.0 nM
[19] = target: Serine/threonine-protein kinase PLK2 (Homo sapiens) (UniProt Q9NYY3); conditions: Compound concentration 1000.0 nM
[20] = tested on: Epidermal growth factor receptor (Homo sapiens), P00533 [L858R,T790M]; conditions: Compound concentration 1000.0 nM
[21] = target: Interleukin-1 receptor-associated kinase 4 (Homo sapiens) (UniProt Q9NWZ3); conditions: Compound concentration 1000.0 nM
[22] = target: Tyrosine-protein kinase Fgr (Homo sapiens) (UniProt P09769); conditions: Compound concentration 1000.0 nM
[23] = target: Ribosomal protein S6 kinase alpha-5 (Homo sapiens) (UniProt O75582); conditions: Compound concentration 1000.0 nM
[24] = target: Vascular endothelial growth factor receptor 2 (Homo sapiens) (UniProt P35968); conditions: Compound concentration 1000.0 nM
[25] = tested on: Tyrosine-protein kinase ABL1 (Homo sapiens), P00519 [H396P]; conditions: Compound concentration 1000.0 nM
[26] = target: RAC-alpha serine/threonine-protein kinase (Homo sapiens) (UniProt P31749); conditions: Compound concentration 1000.0 nM
[27] = target: Activated CDC42 kinase 1 (Homo sapiens) (UniProt Q07912); conditions: Compound concentration 1000.0 nM
[28] = tested on: Leucine-rich repeat serine/threonine-protein kinase 2 (Homo sapiens), Q5S007 [G2019S]; conditions: Compound concentration 1000.0 nM
[29] = target: Wee1-like protein kinase 2 (Homo sapiens) (UniProt P0C1S8); conditions: Compound concentration 1000.0 nM
[30] = target: Phosphatidylinositol 4-phosphate 3-kinase C2 domain-containing subunit beta (Homo sapiens) (UniProt O00750); conditions: Compound concentration 1000.0 nM
[31] = target: Serine/threonine-protein kinase PAK 5 (Homo sapiens) (UniProt Q9P286); conditions: Compound concentration 1000.0 nM
[32] = target: Mitogen-activated protein kinase kinase kinase 9 (Homo sapiens) (UniProt P80192); conditions: Compound concentration 1000.0 nM
[33] = target: Mitogen-activated protein kinase kinase kinase 14 (Homo sapiens) (UniProt Q99558); conditions: Compound concentration 1000.0 nM

Serine/threonine-protein kinase PLK2 (Homo sapiens), sequence (Q9NYY3 whole entry, looked up): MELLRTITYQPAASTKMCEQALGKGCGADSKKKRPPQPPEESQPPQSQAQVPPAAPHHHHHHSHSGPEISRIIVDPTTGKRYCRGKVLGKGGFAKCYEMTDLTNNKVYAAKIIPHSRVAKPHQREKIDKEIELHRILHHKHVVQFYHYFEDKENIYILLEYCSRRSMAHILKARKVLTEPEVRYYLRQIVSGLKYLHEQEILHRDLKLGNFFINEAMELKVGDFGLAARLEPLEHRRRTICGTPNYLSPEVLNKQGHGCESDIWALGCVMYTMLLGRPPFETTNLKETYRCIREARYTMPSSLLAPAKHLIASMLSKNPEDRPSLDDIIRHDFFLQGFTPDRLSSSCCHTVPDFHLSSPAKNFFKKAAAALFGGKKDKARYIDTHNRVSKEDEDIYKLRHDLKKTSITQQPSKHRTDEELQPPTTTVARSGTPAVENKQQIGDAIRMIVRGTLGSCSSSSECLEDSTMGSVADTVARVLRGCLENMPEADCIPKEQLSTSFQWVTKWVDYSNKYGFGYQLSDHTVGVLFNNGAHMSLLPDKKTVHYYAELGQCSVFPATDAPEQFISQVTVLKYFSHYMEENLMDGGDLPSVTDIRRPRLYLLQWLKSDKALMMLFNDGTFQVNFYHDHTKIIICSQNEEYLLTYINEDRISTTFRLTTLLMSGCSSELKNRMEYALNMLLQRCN
Discoidin domain-containing receptor 2 (Homo sapiens), sequence (Q16832 whole entry, the tested form may be a part): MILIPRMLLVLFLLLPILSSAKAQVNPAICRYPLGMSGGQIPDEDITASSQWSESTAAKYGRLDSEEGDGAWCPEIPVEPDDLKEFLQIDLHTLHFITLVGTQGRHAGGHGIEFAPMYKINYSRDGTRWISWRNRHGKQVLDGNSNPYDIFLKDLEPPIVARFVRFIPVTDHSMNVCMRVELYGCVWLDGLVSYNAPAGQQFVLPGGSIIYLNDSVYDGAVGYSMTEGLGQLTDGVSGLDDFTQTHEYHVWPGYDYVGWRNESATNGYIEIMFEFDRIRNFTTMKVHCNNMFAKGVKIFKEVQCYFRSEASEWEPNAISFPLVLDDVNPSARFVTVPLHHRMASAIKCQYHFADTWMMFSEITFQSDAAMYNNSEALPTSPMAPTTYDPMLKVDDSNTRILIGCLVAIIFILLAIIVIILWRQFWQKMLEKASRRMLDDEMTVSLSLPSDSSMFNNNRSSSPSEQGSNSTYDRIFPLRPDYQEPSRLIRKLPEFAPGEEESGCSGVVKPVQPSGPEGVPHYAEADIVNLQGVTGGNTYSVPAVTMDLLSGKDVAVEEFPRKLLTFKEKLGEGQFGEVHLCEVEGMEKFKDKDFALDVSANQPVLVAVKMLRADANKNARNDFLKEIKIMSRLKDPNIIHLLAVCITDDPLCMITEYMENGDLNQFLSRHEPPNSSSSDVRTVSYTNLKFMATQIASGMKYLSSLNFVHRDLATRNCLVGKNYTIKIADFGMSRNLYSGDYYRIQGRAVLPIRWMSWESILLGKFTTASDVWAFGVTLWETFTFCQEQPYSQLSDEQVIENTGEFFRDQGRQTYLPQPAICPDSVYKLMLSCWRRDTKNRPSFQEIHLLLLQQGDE
RAC-alpha serine/threonine-protein kinase (Homo sapiens), sequence (P31749 whole entry): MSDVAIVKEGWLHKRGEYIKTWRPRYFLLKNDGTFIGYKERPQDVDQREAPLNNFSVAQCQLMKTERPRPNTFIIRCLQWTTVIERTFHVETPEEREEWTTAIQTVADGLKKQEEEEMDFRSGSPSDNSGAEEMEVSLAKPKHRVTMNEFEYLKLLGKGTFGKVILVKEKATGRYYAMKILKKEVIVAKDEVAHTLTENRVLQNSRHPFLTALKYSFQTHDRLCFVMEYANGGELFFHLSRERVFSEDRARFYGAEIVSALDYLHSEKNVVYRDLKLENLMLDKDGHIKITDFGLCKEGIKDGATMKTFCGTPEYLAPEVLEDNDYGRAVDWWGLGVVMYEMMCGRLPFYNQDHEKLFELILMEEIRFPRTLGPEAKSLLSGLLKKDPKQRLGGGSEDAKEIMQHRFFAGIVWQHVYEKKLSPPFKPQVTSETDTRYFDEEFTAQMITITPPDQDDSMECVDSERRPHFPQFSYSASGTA
Focal adhesion kinase 1 (Homo sapiens), sequence (Q05397 2-1052 limits assumed): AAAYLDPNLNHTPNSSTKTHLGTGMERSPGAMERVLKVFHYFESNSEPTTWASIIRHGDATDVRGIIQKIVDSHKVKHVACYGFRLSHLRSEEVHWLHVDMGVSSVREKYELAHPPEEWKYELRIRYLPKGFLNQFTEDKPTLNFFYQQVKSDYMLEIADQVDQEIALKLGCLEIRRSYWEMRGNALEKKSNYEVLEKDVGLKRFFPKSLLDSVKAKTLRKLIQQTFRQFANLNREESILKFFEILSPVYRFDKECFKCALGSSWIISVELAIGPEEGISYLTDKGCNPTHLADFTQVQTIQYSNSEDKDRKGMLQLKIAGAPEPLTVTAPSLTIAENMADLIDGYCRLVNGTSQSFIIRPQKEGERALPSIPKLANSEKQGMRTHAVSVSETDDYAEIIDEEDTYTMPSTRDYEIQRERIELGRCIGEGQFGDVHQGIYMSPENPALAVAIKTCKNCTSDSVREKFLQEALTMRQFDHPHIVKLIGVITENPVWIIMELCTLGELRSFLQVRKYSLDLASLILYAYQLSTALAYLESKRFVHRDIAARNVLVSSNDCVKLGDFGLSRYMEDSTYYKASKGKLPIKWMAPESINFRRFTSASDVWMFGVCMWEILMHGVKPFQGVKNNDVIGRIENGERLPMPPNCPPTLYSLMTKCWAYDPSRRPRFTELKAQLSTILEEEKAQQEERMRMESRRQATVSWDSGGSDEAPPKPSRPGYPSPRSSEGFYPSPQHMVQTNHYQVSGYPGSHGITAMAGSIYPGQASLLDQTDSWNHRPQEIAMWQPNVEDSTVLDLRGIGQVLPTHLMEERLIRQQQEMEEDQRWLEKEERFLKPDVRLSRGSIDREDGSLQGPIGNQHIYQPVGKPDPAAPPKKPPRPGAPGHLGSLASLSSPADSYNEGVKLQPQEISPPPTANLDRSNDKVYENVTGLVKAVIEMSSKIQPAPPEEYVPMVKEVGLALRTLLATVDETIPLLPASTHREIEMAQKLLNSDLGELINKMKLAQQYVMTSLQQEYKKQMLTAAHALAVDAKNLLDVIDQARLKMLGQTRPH
Phosphatidylinositol 4-phosphate 3-kinase C2 domain-containing subunit beta (Homo sapiens), sequence (O00750 whole entry, the tested form may be a part): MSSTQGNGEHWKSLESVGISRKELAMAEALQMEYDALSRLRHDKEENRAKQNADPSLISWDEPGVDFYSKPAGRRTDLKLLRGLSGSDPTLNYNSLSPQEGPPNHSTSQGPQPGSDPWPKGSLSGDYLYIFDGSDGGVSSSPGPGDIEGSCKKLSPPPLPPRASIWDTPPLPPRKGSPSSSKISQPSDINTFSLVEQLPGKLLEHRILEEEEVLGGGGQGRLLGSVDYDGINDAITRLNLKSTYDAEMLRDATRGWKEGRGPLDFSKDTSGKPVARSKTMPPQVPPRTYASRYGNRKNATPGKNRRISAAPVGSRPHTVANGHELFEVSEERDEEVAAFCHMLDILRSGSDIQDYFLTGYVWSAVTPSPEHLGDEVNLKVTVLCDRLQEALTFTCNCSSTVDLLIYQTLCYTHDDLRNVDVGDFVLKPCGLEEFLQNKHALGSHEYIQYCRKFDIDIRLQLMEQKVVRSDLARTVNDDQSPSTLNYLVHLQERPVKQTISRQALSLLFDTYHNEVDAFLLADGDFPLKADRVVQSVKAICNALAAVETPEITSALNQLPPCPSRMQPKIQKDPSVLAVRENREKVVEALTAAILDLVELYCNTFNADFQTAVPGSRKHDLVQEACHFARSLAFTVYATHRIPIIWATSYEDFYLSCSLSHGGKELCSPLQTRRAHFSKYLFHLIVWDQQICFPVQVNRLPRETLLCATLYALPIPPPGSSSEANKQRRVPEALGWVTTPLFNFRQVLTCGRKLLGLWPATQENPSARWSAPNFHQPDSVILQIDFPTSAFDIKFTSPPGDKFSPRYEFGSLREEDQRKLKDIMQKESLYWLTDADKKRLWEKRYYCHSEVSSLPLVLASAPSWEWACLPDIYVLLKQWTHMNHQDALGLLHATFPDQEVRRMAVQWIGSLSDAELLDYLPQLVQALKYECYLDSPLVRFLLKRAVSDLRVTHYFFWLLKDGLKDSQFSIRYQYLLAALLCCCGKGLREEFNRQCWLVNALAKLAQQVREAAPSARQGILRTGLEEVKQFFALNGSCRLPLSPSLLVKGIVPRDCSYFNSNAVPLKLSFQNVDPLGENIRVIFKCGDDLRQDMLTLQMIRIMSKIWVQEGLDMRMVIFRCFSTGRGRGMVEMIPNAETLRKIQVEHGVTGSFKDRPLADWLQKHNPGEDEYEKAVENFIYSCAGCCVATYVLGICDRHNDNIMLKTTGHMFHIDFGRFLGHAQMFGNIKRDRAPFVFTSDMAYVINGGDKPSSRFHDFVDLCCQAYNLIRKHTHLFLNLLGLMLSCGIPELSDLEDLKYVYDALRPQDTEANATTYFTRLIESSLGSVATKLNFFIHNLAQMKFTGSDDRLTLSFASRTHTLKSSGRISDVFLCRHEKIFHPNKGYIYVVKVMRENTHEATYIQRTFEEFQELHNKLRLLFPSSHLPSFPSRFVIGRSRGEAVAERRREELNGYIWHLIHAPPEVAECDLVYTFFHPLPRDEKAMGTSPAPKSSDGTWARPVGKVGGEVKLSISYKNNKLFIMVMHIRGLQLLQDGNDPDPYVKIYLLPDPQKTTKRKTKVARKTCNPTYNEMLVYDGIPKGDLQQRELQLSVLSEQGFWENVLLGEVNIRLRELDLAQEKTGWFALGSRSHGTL
5-hydroxytryptamine receptor 1D (Homo sapiens), sequence (P28221 whole entry): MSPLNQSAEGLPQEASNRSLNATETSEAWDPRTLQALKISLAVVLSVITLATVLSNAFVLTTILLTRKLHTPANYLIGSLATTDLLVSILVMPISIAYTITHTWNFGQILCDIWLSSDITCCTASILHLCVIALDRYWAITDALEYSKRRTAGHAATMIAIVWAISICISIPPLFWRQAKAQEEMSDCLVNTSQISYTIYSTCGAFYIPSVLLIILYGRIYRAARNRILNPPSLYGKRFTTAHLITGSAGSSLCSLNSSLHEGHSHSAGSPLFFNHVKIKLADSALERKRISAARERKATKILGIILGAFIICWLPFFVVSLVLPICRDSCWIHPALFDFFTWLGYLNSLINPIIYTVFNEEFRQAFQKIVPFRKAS

| Compound | residual activity [1] | residual activity [2] | inhibition [3] | residual activity [4] | residual activity [5] | residual activity [6] | residual activity [7] | residual activity [8] | residual activity [9] | residual activity [10] | residual activity [11] | residual activity [12] | residual activity [13] | residual activity [14] | residual activity [15] | IC50 [16] | residual activity [17] | residual activity [18] | residual activity [19] | residual activity [20] | further results |
| --- | --- | --- | --- | --- | --- | --- | --- | --- | --- | --- | --- | --- | --- | --- | --- | --- | --- | --- | --- | --- | --- |
| CO[C@@H](C)c1c(Nc2ccc([C@@H](N(C)C(=O)C3CCS(=O)(=O)CC3)C(F)(F)F)cc2)cnc2cc(Cl)nn12 [NVS-MALT1-C] | 97% | 59% | -3.07% | 100% | 100% | 100% | 90% | 93% | 98% | 91% | 98% | 29% | 100% | 72% | 100% | 1.9 µM (active) | 85% | 100% | 100% | 72% | residual activity [21]: 89%; residual activity [22]: 100%; residual activity [23]: 70%; residual activity [24]: 95%; residual activity [25]: 96%; residual activity [26]: 89%; residual activity [27]: 84%; residual activity [28]: 100%; residual activity [29]: 100%; residual activity [30]: 89%; residual activity [31]: 100%; residual activity [32]: 81%; residual activity [33]: 90% |
| CO[C@@H](C)c1c(Nc2ccc([C@H](N(C)C(=O)C3CCS(=O)(=O)CC3)C(F)(F)F)cc2)cnc2cc(Cl)nn12 [NVS-MALT1] | 77% | 65% | -2.45% | 85% | 86% | 100% | 85% | 80% | 92% | 74% | 100% | 43% | 100% | 66% | 100% | 0.0034 µM (active) | 79% | 100% | 100% | 80% | residual activity [21]: 88%; residual activity [22]: 100%; residual activity [23]: 88%; residual activity [24]: 100%; residual activity [25]: 95%; residual activity [26]: 100%; residual activity [27]: 100%; residual activity [28]: 100%; residual activity [29]: 88%; residual activity [30]: 97%; residual activity [31]: 100%; residual activity [32]: 100%; residual activity [33]: 94% |
